Laboratory results reported in ChEMBL document CHEMBL4477259, “Discovery and structure-activity relationships of a novel isothiazolone class of bacterial type II topoisomerase inhibitors” (Bioorg Med Chem Lett, 2016).
Values after ≈ are worked out from the molar mass of the structure shown.

Key:
[1] = system: Acinetobacter baumannii; experiment: Antibacterial activity against Acinetobacter baumannii NCTC 13420; type: functional
[2] = system: Klebsiella pneumoniae; experiment: Antibacterial activity against Klebsiella pneumoniae ATCC 700603; type: functional
[3] = system: Pseudomonas aeruginosa; experiment: Antibacterial activity against Pseudomonas aeruginosa ATCC 27853; type: functional
[4] = system: Staphylococcus aureus; experiment: Antibacterial activity against Staphylococcus aureus ATCC 29213; type: functional
[5] = system: Escherichia coli; experiment: Antibacterial activity against Escherichia coli W4573; type: functional
[6] = system: Escherichia coli; experiment: Antibacterial activity against Escherichia coli N43; type: functional
[7] = system: Escherichia coli; experiment: Antibacterial activity against wild type Escherichia coli LM179; type: functional
[8] = system: Escherichia coli; experiment: Antibacterial activity against Escherichia coli LM625 harboring GyrA S83L/D87N double mutant; type: functional
[9] = system: Escherichia coli; experiment: Antibacterial activity against Escherichia coli LM367 harboring delta marR/delta acrR double mutant; type: functional
[10] = system: Escherichia coli; experiment: Antibacterial activity against Escherichia coli LM693 harboring GyrA S83L/D87N double mutant/ParC S80I mutant; type: functional
[11] = system: Escherichia coli; experiment: Antibacterial activity against Escherichia coli LM705 harboring GyrA S83L/D87N double mutant/ParC S80I mutant/delta marR/delta acrR double mutant; type: functional
[12] = system: Escherichia coli; experiment: Antibacterial activity against Escherichia coli CH440 harboring GyrA S83L/D87N double mutant/ParC S80I E84V double mutant/aac(6')-lb-cr; type: functional
[13] = system: Escherichia coli; experiment: Antibacterial activity against Escherichia coli CH460 harboring GyrA S83L/D87N double mutant/ParC S80I E84V double mutant/qepA; type: functional
[14] = system: Escherichia coli; experiment: Antibacterial activity against Escherichia coli CH418 harboring GyrA S83L/D87N double mutant/ParC S80I E84G double mutant/qnrA; type: functional
[15] = system: Escherichia coli; experiment: Antibacterial activity against Escherichia coli CH448 harboring GyrA S83L mutant/qnrS; type: functional
[16] = system: Escherichia coli; experiment: Selectivity ratio of MIC for Escherichia coli LM625 harboring GyrA S83L/D87N double mutant to MIC for wild type Escherichia coli LM179; type: functional
[17] = system: Escherichia coli; experiment: Selectivity ratio of MIC for Escherichia coli LM367 harboring delta marR/delta acrR double mutant to MIC for wild type Escherichia coli LM179; type: functional
[18] = system: Escherichia coli; experiment: Selectivity ratio of MIC for Escherichia coli LM693 harboring GyrA S83L/D87N double mutant/ParC S80I mutant to MIC for wild type Escherichia coli LM179; type: functional
[19] = system: Escherichia coli; experiment: Selectivity ratio of MIC for Escherichia coli LM705 harboring GyrA S83L/D87N double mutant/ParC S80I mutant/delta marR/delta acrR double mutant to MIC for wild type Escherichia coli LM179; type: functional
[20] = system: Escherichia coli; experiment: Selectivity ratio of MIC for Escherichia coli CH440 harboring GyrA S83L/D87N double mutant/ParC S80I E84V double mutant/aac(6')-lb-cr to MIC for wild type Escherichia coli LM179; type: functional
[21] = system: Escherichia coli; experiment: Selectivity ratio of MIC for Escherichia coli CH460 harboring GyrA S83L/D87N double mutant/ParC S80I E84V double mutant/qepA to MIC for wild type Escherichia coli LM179; type: functional
[22] = system: Escherichia coli; experiment: Selectivity ratio of MIC for Escherichia coli CH418 harboring GyrA S83L/D87N double mutant/ParC S80I E84G double mutant/qnrA to MIC for wild type Escherichia coli LM179; type: functional
[23] = system: Escherichia coli; experiment: Selectivity ratio of MIC for Escherichia coli CH448 harboring GyrA S83L mutant/qnrS to MIC for wild type Escherichia coli LM179; type: functional
[24] = system: HepG2; experiment: Cytotoxicity against human HepG2 cells after 24 hrs by cell titre-glo assay; type: cell-based; details: HepG2, 24 h
[25] = n-octanol/phosphate buffer partition coefficient, log D of compound at pH 7.4 by shake-flask assay; type: physicochemical
[26] = molecular target: hERG (KCNH2) (Homo sapiens, UniProt Q12809); experiment: Inhibition of human ERG channel at 100 uM by automated patch clamp assay
Sequence of hERG (KCNH2) (Q12809 whole entry): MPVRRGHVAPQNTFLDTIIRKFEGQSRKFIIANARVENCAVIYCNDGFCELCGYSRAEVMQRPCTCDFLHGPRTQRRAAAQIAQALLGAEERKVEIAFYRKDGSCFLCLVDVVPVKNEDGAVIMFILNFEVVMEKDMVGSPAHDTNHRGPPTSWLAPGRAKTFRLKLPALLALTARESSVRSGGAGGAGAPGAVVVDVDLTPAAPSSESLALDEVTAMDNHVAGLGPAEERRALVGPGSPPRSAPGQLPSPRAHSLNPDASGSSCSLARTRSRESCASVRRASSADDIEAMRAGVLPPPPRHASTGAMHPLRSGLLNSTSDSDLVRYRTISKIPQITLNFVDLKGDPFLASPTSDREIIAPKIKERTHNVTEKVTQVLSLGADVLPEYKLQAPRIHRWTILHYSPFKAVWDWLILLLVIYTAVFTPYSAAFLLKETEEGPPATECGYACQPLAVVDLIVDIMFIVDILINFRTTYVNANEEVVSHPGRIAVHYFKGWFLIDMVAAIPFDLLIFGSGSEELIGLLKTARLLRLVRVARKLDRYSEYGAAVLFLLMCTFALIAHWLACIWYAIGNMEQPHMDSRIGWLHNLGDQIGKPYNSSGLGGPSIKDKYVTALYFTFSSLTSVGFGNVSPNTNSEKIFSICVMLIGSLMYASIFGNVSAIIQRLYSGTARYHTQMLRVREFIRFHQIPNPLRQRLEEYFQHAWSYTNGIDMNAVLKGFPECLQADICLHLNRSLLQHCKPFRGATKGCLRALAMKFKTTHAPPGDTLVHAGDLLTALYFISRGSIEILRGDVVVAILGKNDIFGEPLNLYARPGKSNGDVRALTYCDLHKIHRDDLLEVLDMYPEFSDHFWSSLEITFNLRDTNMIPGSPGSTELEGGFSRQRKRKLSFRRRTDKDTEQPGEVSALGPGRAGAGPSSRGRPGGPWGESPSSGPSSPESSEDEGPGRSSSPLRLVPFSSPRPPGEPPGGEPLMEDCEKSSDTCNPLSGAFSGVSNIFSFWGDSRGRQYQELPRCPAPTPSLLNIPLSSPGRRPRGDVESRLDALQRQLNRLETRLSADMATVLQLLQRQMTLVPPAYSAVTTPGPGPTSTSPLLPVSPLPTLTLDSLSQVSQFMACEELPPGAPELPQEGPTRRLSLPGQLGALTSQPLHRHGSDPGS

For `CCc1c(-c2ccc(N3CC[C@H](N(C)C)C3)cc2)[nH]c(=O)c2c(=O)[nH]sc12`, the MIC [1] was 1 µg/mL (≈ 2.6 µM), the MIC [2] was 4 µg/mL (≈ 10.4 µM) and the MIC [3] was 1 µg/mL (≈ 2.6 µM). It also gave an MIC [4] of 0.5 µg/mL (≈ 1.3 µM), an MIC [5] of 0.015 µg/mL (≈ 0.039 µM) and an MIC [6] of 0.001 µg/mL (≈ 0.0026 µM).

In the case of `CCc1c(-c2ccc(Cl)cc2)[nH]c(=O)c2c(=O)[nH]sc12`, the MIC [1] is reported as 16 µg/mL (≈ 52.2 µM), the MIC [2] is reported as 128 µg/mL (≈ 417 µM) and the MIC [3] is reported as > 128 µg/mL. It also gave an MIC [4] of 8 µg/mL (≈ 26.1 µM), an MIC [5] of 16 µg/mL (≈ 52.2 µM) and an MIC [6] of 0.25 µg/mL (≈ 0.815 µM).

Work on `CCc1c(-c2ccc(N3CCC(N)C3)cc2)[nH]c(=O)c2c(=O)[nH]sc12` (stereo not drawn) yielded an MIC [1] of 64 µg/mL (≈ 180 µM), an MIC [2] of 4 µg/mL (≈ 11.2 µM) and an MIC [3] of 0.06 µg/mL (≈ 0.168 µM). For the same compound, the MIC [4] was 0.12 µg/mL (≈ 0.337 µM), the MIC [5] was 0.002 µg/mL (≈ 0.00561 µM) and the MIC [6] was ≤ 0.0001 µg/mL.

For `CCc1c(-c2cccc(N3CCC(N(C)C)C3)c2)[nH]c(=O)c2c(=O)[nH]sc12` (stereo not drawn), the MIC [1] was 64 µg/mL (≈ 166 µM), the MIC [2] was > 128 µg/mL and the MIC [3] was > 128 µg/mL. For the same compound, the MIC [4] was 32 µg/mL (≈ 83.2 µM), the MIC [5] was > 64 µg/mL and the MIC [6] was 8 µg/mL (≈ 20.8 µM).

`CCc1c(-c2ccc3c(cnn3C)c2)[nH]c(=O)c2c(=O)[nH]sc12` gave an MIC [7] of 0.5 µg/mL (≈ 1.53 µM), an MIC [8] of 8 µg/mL (≈ 24.5 µM) and an MIC [1] of 2 µg/mL (≈ 6.13 µM). It also gave an MIC [2] of 16 µg/mL (≈ 49 µM), an MIC [3] of 4 µg/mL (≈ 12.3 µM) and an MIC [4] of 0.12 µg/mL (≈ 0.368 µM). It also gave an MIC [5] of 0.5 µg/mL (≈ 1.53 µM), an MIC [6] of 0.004 µg/mL (≈ 0.0123 µM) and an MIC [9] of 4 µg/mL (≈ 12.3 µM). For the same compound, the MIC [10] was 16 µg/mL (≈ 49 µM), the MIC [11] was > 64 µg/mL and the MIC [12] was 16 µg/mL (≈ 49 µM). The MIC [13] was 16 µg/mL (≈ 49 µM), the MIC [14] was 16 µg/mL (≈ 49 µM) and the MIC [15] was 16 µg/mL (≈ 49 µM). It also gave a Selectivity ratio [16] of 16, a Selectivity ratio [17] of 8 and a Selectivity ratio [18] of 32. The Selectivity ratio [19] was >128, the Selectivity ratio [20] was 32 and the Selectivity ratio [21] was 32. For the same compound, the Selectivity ratio [22] was 32 and the Selectivity ratio [23] was 32.

In the case of `CCc1c(-c2ccc(N3CCC(NC)C3)cc2)[nH]c(=O)c2c(=O)[nH]sc12` (stereo not drawn), the MIC [1] is reported as 16 µg/mL (≈ 43.2 µM), the MIC [2] is reported as 2 µg/mL (≈ 5.4 µM) and the MIC [3] is reported as 0.06 µg/mL (≈ 0.162 µM). It also gave an MIC [4] of 0.12 µg/mL (≈ 0.324 µM), an MIC [5] of 0.008 µg/mL (≈ 0.0216 µM) and an MIC [6] of 0.001 µg/mL (≈ 0.0027 µM). For the same compound, the IC50 [24] was > 128 µg/mL, the logD [25] was 1.2 and the inhibition at 100 µM [26] was 34%.

In the case of `CCc1c(-c2cccc(N3CCC(NC)C3)c2)[nH]c(=O)c2c(=O)[nH]sc12` (stereo not drawn), the MIC [1] is reported as > 128 µg/mL, the MIC [2] is reported as > 128 µg/mL and the MIC [3] is reported as > 128 µg/mL. The MIC [4] was 32 µg/mL (≈ 86.4 µM).

For `CCc1c(-c2ccc(N3CCC(F)(F)C3)cc2)[nH]c(=O)c2c(=O)[nH]sc12`, the MIC [1] was > 64 µg/mL, the MIC [2] was > 64 µg/mL and the MIC [3] was 4 µg/mL (≈ 10.6 µM). For the same compound, the MIC [4] was 0.12 µg/mL (≈ 0.318 µM), the MIC [5] was 0.5 µg/mL (≈ 1.32 µM) and the MIC [6] was 0.12 µg/mL (≈ 0.318 µM).

In the case of `CCc1c(-c2ccc(N3CCC(N(C)C)CC3)cc2)[nH]c(=O)c2c(=O)[nH]sc12`, the MIC [1] is reported as > 64 µg/mL, the MIC [2] is reported as > 64 µg/mL and the MIC [3] is reported as 64 µg/mL (≈ 161 µM). The MIC [4] was 16 µg/mL (≈ 40.1 µM), the MIC [5] was 16 µg/mL (≈ 40.1 µM) and the MIC [6] was 0.5 µg/mL (≈ 1.25 µM).

For `CCc1c(-c2ccc(N3CCC(NC)CC3)cc2)[nH]c(=O)c2c(=O)[nH]sc12`, the MIC [1] was > 64 µg/mL, the MIC [2] was > 64 µg/mL and the MIC [3] was 64 µg/mL (≈ 166 µM). The MIC [4] was 16 µg/mL (≈ 41.6 µM), the MIC [5] was 32 µg/mL (≈ 83.2 µM) and the MIC [6] was 1 µg/mL (≈ 2.6 µM).
